Measurements: ChEMBL document CHEMBL5360558, “Molecular design, synthesis and anticancer activity of new thiopyrano[2,3-d]thiazoles based on 5-hydroxy-1,4-naphthoquinone (juglone)” (Eur J Med Chem, 2023)

Experiments:
[1] = Antileukemic activity against human CLL cell assessed as cell growth inhibition incubated for 72 hrs during remission period by MTT assay; format: functional, cell-based
[2] = Acute toxicity in C57BL/6 mouse assessed as leukopenia at 20 mg/kg,ip administration observed after 22 days; format: organism-based; settings: in vivo, 528 h, time 22 day
COLO 205 = assay: Anticancer activity against human COLO 205 cells assessed as cell growth at 10 uM incubated for 48 hrs by sulforhodamine B assay; format: functional; settings: read-out: Activity
SNB-75 = assay: Anticancer activity against human SNB-75 cells assessed as cell growth at 10 uM incubated for 48 hrs by sulforhodamine B assay; format: functional; settings: read-out: Activity
MDA-MB-435 = assay: Anticancer activity against human MDA-MB-435 cells assessed as cell growth at 10 uM incubated for 48 hrs by sulforhodamine B assay; format: functional; settings: read-out: Activity
M14 = assay: Anticancer activity against human M14 cells assessed as cell growth at 10 uM incubated for 48 hrs by sulforhodamine B assay; format: functional; settings: read-out: Activity
A498 = assay: Anticancer activity against human A498 cells assessed as cell growth at 10 uM incubated for 48 hrs by sulforhodamine B assay; format: functional; settings: read-out: Activity
[3] = Cytotoxicity against human HaCaT cells assessed as cell growth inhibition incubated for 72 hrs by MTT assay; format: toxicity, cell-based; settings: HaCaT cells
[4] = Cytotoxicity against mouse J774.2 cells assessed as cell growth inhibition incubated for 72 hrs by MTT assay; format: toxicity, cell-based
[5] = Acute toxicity in C57BL/6 mouse assessed as animal death at 20 mg/kg,ip administration observed after 8 days; format: organism-based; settings: in vivo, 192 h, time 8 day
[6] = Cytotoxicity against mouse NIH3T3 cells assessed as cell growth inhibition incubated for 72 hrs by MTT assay; format: toxicity, cell-based
[7] = Cytotoxicity against human HCT116-p53-null cells assessed as cell growth inhibition incubated for 72 hrs by MTT assay; format: functional, cell-based
[8] = Cytotoxicity against human Lymphocyte cells assessed as cell growth inhibition incubated for 72 hrs by MTT assay; format: toxicity, cell-based; settings: lymphocytes
[9] = Acute toxicity in C57BL/6 mouse assessed as animal death at 20 mg/kg,ip administration observed after 13 days; format: organism-based; settings: in vivo, 312 h, time 13 day
HCT-116 = assay: Cytotoxicity against human HCT-116 cells assessed as cell growth inhibition incubated for 72 hrs by MTT assay; format: functional, cell-based; settings: HCT-116, 72 h
SK-MEL-5 = assay: Anticancer activity against human SK-MEL-5 cells assessed as cell growth at 10 uM incubated for 48 hrs by sulforhodamine B assay; format: functional; settings: read-out: Activity
[10] = Acute toxicity in C57BL/6 mouse assessed as neutrophil count at 20 mg/kg,ip administration and observed after 22 days; format: organism-based; settings: in vivo, 528 h, time 22 day
[11] = Acute toxicity in C57BL/6 mouse assessed as anemia at 20 mg/kg,ip administration observed after 22 days; format: organism-based; settings: in vivo, 528 h, time 22 day
[12] = Antileukemic activity against human CLL cell assessed as cell growth inhibition incubated for 72 hrs by MTT assay; format: functional, cell-based
K562 = assay: Cytotoxicity against human K562 cells assessed as cell growth inhibition incubated for 72 hrs by MTT assay; format: functional, cell-based; settings: K562, 72 h
SK-MEL-2 = assay: Anticancer activity against human SK-MEL-2 cells assessed as cell growth at 10 uM incubated for 48 hrs by sulforhodamine B assay; format: functional; settings: read-out: Activity
[13] = Antileukemic activity against human CLL cell assessed as cell growth inhibition incubated for 72 hrs in presence of BST by MTT assay; format: functional, cell-based
[14] = Acute toxicity in C57BL/6 mouse assessed as decrease in body mass at 20 mg/kg,ip administration observed after 6 days; format: organism-based; settings: in vivo, 144 h, time 6 day
KB 3-1 = assay: Cytotoxicity against human KB 3-1 cells assessed as cell growth inhibition incubated for 72 hrs by MTT assay; format: functional, cell-based; settings: KB 3-1, 72 h
[15] = Acute toxicity in C57BL/6 mouse assessed as decrease in body mass at 6.6 mg/kg,ip administration; format: organism-based; settings: in vivo
[16] = Acute toxicity in C57BL/6 mouse assessed as lymphocyte count at 20 mg/kg,ip administration and observed after 22 days; format: organism-based; settings: in vivo, 528 h, time 22 day

SMILES: COc1cccc2c1C(=O)c1c(O)c3c(c(O)c1C2=O)C[C@@](O)(C(=O)CO)C[C@@H]3O[C@H]1C[C@H](N)[C@H](O)[C@H](C)O1 [DOXORUBICIN]
- IC50 [1]: 7.33 µM
- Activity [2]: Toxic
- growth at 10 µM (COLO 205): -81.6%
- growth at 10 µM (SNB-75): -76.1%
- growth at 10 µM (MDA-MB-435): -82.6%
- growth at 10 µM (M14): -71.6%
- growth at 10 µM (A498): -75.1%
- IC50 at 72 h [3]: 4.56 µM
- IC50 at 72 h [4]: 0.56 µM
- Activity [5]: Toxic
- IC50 at 72 h [6]: 0.72 µM
- IC50 [7]: 0.63 µM
- IC50 at 72 h [8]: 10 µM
- Activity [9]: Toxic
- IC50 (HCT-116): 0.58 µM
- growth at 10 µM (SK-MEL-5): -86.4%
- Activity [10]: 45.05%
- Activity [11]: Toxic
- IC50 [12]: > 10 µM
- IC50 (K562): 0.59 µM
- growth at 10 µM (SK-MEL-2): -82.6%
- IC50 [13]: 8.6 µM
- Activity [14]: Toxic
- IC50 (KB 3-1): 0.56 µM
- Activity [15]: Toxic
- Activity [16]: 50.35%
